Laboratory results as given in US20130071482A1, “BLOCK COPOLYMER CROSS-LINKED NANOASSEMBLIES AS MODULAR DELIVERY VEHICLES” (THE UNIVERSITY OF KENTUCKY RESEARCH FOUNDATION, priority 2011, published 2013).

Experiments:
[1] = test system: human non-small cell lung cancer A549 cell line; experiment: Cytotoxicity assay (resazurin cell viability); assay type: cell-based; details: A549 cells
Method: A human non-small cell lung cancer A549 cell line was used to determine the cytotoxicity of empty nanoassemblies, DOX-loaded nanoassemblies, and free DOX. Cells were seeded in a 96-well plate (5,000 cells/well) in 100 μL F12K cell culture medium containing 10% FBS. After 24 hours, serial dilutions of the samples were added to the cell plate. Cells were then incubated at 37° C., 5% CO2, for 72 hours, followed by cell viability measurement using a resazurin assay that indicates mitochondrial metabolic activity in live cells. Resazurin solution in PBS (10 μL, 1 mM) was added to the sample-treated cells at the end of the 72-hour treatment period. Three hours later, the fluorescence of resorufin, metabolited resazurin, was measured at 560 nm (excitation)/590 nm (emission). The half maximal inhibitory concentration (IC50) was calculated with Prism software (GraphPad, USA).

[2] = Drug release experiment (dialysis of DOX-loaded particles, sink condition); assay type: physicochemical; details: 37° C., from AUC of release-time curve, normalized to initial drug loading (100%)
Method: Proton nuclear magnetic resonance (^1H-NMR, Varian, 400 MHz) measurements were used to determine the compositions of block copolymers and nanoassemblies in DMSO-d6 and D2O, respectively. The number average molecular weights (Mn) of block copolymers and nanoassemblies were calculated by gel permeation chromatography (GPC, Shimadzu LC20, Japan) equipped with RI and UV detectors, using PEG standard and a phosphate buffered saline (PBS, 1×) mobile phase. Particle sizes of nanoassemblies were determined by dynamic light scattering (DLS, Zetasizer Nano 90, Malvern, UK) measurements at a 173° fixed angle. All samples were prepared in aqueous solutions at 2 mg/mL and filtered through 0.22 μm filters prior to GPC and DLS analyses. DOX loading and release were quantified using ultraviolet-visible spectrophotometry spectroscopy (UV-Vis, absorbance at 480 nm, SpectraMax M5, Molecular Devices, USA).
All particles entrapping DOX were dissolved in deionized water (0.5 mg/mL), and transferred to six dialysis cassettes (MWCO 10 kDa). […] Drug release patterns were monitored under the sink condition as the volume of dialysis medium was maintained 3,000 times greater (5 L) than the volume of the sample solution in the dialysis cassettes (1.65 mL/cassette, n=3). […] DOX remaining in each dialysis cassette was measured at 0, 1, 3, 6, 10, 24, 34, and 48 h. […]

## COc1cccc2c1C(=O)c1c(O)c3c(c(O)c1C2=O)C[C@@](O)(C(=O)CO)C[C@@H]3O[C@H]1C[C@H](N)[C@H](O)[C@H](C)O1.Cl [Free DOX, doxorubicin hydrochloride]
[1]; 72 hours incubation, resazurin assay, DOX equivalent
  IC50: 530 ± 200 nM
[1]; IC50 relative to free DOX (fold)
  Relative cytotoxicity: 1.00
[2]; pH 5.0, 48 h
  Accumulated drug release at pH 5.0 in 48 h: 100%
[2]; pH 7.4, 48 h
  Accumulated drug release at pH 7.4 in 48 h: 100%
